Results on 29 compounds are retold here after ChEMBL document CHEMBL5725844, “Indazolyl thiadiazolamines and related compounds for inhibition of Rho-associated protein kinase and the treatment of disease” (2018).

SMILES strings stand for the structures. A value given as a limit tells only on which side of the number the result lay.

In assay [1] the target is Rho-associated protein kinase 1 (Homo sapiens, UniProt Q13464). As to the kind of experiment: (§1) Protein constructs were purified from a baculovirus expression system. The peptide substrate was fluorescent LANCE® Ultra ULight-CREBtide: […] (PerkinElmer, # TRF0107-D). Kinase reactions were carried out in a 10 μL volume in 384-well plates: 50 nM ULight-CREBtide substrate, 2 nM constitutively active ROCK1 or ROCK2 kinase, and test compound in DMSO (or DMSO only for controls) were diluted into assay buffer containing 50 mM Tris-HCl (pH=7.5), 10 mM MgCl2, 1 mM EGTA, 0.01% Tween-20, and 2 mM DTT such that the final concentration of DMSO was 0.5%. After a 90 minute incubation at room temperature on a shaker table, the kinase reaction was stopped by addition of 10 mM EDTA, and phosphorylation of the substrate was detected by adding 1 nM LANCE® Ultra Europium-anti-phospho-CREB (ser133) antibody (PerkinElmer, # TRF0200-D) and incubating for 60 minutes on a shaker at room temperature. The flurorescence resonance energy transfer (FRET) signals were read and analyzed on an Envision¿ 2103 Multilabel Reader (Perkin Elmer). (In general: In TR-FRET formats the signal depends on donor and acceptor labels being close together.)
Sequence of Rho-associated protein kinase 1 (Q13464 whole entry): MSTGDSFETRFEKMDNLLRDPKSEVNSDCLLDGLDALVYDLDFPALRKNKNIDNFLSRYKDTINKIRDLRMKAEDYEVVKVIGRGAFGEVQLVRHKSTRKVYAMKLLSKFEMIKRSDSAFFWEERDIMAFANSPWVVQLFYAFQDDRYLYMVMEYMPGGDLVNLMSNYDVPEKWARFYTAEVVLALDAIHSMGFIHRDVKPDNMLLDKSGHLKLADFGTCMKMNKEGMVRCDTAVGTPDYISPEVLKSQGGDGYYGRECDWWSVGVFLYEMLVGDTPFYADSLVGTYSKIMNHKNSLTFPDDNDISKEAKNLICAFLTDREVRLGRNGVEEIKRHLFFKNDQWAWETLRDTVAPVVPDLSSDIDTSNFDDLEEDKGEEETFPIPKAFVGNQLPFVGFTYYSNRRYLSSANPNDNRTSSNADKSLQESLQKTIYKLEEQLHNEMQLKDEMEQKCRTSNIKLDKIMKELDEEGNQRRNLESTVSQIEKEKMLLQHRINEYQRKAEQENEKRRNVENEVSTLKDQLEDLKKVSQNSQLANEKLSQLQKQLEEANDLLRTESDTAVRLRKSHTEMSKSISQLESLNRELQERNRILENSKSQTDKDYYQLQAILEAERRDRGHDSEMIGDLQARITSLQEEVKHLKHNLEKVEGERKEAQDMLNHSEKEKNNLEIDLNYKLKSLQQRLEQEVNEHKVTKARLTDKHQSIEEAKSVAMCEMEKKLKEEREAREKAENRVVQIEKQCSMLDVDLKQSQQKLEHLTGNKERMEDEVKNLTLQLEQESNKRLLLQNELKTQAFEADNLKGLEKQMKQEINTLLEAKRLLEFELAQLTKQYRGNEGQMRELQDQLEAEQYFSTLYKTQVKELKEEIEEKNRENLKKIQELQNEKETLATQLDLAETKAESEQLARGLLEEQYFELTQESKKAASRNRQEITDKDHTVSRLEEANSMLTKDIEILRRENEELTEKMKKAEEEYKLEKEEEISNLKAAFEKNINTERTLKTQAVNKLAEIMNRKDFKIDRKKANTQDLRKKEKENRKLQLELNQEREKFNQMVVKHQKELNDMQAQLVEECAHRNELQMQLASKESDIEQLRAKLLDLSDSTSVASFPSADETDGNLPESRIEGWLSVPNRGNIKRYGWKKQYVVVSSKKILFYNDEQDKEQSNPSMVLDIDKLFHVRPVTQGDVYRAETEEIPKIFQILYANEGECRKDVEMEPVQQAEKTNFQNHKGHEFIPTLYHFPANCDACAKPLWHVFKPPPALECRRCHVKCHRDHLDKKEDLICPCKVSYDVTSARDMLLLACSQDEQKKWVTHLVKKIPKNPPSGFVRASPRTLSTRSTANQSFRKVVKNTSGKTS

Assay [2] concerns the target Rho-associated protein kinase 2 (Homo sapiens, UniProt O75116). The assay is described as §1.

Sequence of Rho-associated protein kinase 2 (O75116 whole entry): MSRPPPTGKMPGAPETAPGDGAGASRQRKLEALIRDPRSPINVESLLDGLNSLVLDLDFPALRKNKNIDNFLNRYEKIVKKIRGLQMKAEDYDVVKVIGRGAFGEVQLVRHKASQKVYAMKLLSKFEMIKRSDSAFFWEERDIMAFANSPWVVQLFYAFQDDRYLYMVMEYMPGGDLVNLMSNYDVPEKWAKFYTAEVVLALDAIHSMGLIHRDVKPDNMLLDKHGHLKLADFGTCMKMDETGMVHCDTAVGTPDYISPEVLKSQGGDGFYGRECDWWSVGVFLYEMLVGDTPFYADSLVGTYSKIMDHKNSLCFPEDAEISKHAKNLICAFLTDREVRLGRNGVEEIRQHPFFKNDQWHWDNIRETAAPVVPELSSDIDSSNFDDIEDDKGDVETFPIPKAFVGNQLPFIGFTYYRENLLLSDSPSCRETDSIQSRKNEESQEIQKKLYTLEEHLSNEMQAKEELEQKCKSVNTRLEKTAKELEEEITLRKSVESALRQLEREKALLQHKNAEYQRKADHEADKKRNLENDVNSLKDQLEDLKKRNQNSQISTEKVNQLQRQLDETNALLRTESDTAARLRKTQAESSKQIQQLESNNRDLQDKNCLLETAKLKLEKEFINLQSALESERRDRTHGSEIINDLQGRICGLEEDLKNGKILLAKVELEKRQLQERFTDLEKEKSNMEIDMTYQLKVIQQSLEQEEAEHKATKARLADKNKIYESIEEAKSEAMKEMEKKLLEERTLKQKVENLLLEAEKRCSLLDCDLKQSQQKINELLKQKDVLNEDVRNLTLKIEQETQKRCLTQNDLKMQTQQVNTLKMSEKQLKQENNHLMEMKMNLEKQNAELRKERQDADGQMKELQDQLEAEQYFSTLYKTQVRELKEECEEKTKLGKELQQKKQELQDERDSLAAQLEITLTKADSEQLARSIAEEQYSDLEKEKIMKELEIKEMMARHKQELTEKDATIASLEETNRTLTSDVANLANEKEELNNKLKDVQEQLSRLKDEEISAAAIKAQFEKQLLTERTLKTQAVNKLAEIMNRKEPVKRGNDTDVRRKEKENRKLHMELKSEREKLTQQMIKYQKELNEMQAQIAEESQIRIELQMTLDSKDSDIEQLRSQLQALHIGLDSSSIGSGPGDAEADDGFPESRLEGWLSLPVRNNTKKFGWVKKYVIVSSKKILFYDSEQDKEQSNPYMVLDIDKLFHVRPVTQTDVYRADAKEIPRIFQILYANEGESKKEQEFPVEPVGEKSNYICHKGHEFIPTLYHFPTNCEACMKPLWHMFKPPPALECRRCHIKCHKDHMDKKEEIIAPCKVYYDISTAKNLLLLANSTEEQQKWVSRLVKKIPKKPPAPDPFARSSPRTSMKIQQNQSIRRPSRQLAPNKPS

On to `O=C(CC(F)(F)F)Nc1cccc(-c2nnc(Nc3ccc4[nH]ncc4c3Cl)s2)c1`, for which the IC50 in assay [1] and in assay [2] was less than 1 µM each time. With `CN1CC(C(=O)Nc2cccc(-c3nnc(Nc4ccc5[nH]ncc5c4Cl)s3)c2)C1`, the IC50 (commonly the concentration needed to halve the response being measured) in assay [2] is less than 1 µM. Take `Clc1c(Nc2nnc(-c3cccc(-c4nccn4CCN4CCCC4)c3)s2)ccc2[nH]ncc12`: the IC50 in assay [1] is more than 30 µM; in assay [2], less than 1 µM. On to `CC(C)(O)C(=O)Nc1cccc(-c2nnc(Nc3ccc4[nH]ncc4c3Cl)s2)c1`, for which the IC50 in assay [1] and in assay [2] was less than 1 µM each time.

`CNC(=O)c1cc(NC(C)=O)cc(-c2nnc(Nc3ccc4[nH]ncc4c3Cl)s2)c1`: the IC50 in assay [1] and in assay [2] was less than 1 µM in each case. Turning to `CC(=O)Nc1cc(C(N)=O)cc(-c2nnc(Nc3ccc4[nH]ncc4c3Cl)s2)c1`, the IC50 in assay [1] and in assay [2] was less than 1 µM in each case.

`CC(=O)Nc1cc(C)cc(-c2nnc(Nc3ccc4[nH]ncc4c3)s2)c1`: the values for the IC50 in assay [1] and in assay [2] were more than 30 µM and less than 1 µM, respectively.

Turning to `CC(=O)Nc1cc(C(=O)N2CCOCC2)cc(-c2nnc(Nc3ccc4[nH]ncc4c3Cl)s2)c1`, the half-inhibitory concentration (IC50) in assay [1] and in assay [2] was less than 1 µM throughout. As for `O=C(Nc1cccc(-c2nnc(Nc3ccc4[nH]ncc4c3Cl)s2)c1)C1CCCCC1`, the IC50 in assay [1] and in assay [2] was less than 1 µM in each case.

As to `CCCCOC(=O)N(c1nnc(-c2cccc(NC(=O)Cc3ccc(F)cc3)c2)s1)c1ccc2[nH]ncc2c1Cl`, the IC50 is more than 30 µM in assay [1] and less than 1 µM in assay [2]. Regarding `COCCOC(=O)Nc1cc(-c2nnc(Nc3ccc4[nH]ncc4c3Cl)s2)ccn1`, the IC50 in assay [1] is more than 30 µM; in assay [2], less than 1 µM. Consider `Clc1c(Nc2nnc(-c3cccc4c3ncn4CCN3CCCC3)s2)ccc2[nH]ncc12`, for which the IC50 in assay [1] was more than 30 µM. As to `CC(=O)Nc1cc(C(=O)N2CCNCC2)cc(-c2nnc(Nc3ccc4[nH]ncc4c3Cl)s2)c1`, the IC50 in assay [1] and in assay [2] was less than 1 µM throughout. Regarding `Clc1c(Nc2nnc(-c3cccc(-c4nccn4CCN4CCOCC4)c3)s2)ccc2[nH]ncc12`, the IC50 in assay [1] and in assay [2] was less than 1 µM in each case. For `NCc1ccc(C(=O)Nc2cccc(-c3nnc(Nc4ccc5[nH]ncc5c4)s3)c2)cn1`, the concentration for half-maximal inhibition (IC50) in assay [1] and in assay [2] was less than 1 µM each time. Turning to `CC(=O)Nc1cccc(-c2nnc(Nc3ccc4[nH]ncc4c3)s2)c1`, the IC50 in assay [1] and in assay [2] was less than 1 µM throughout. In turn, `O=C(Nc1cccc(-c2nnc(Nc3ccc4[nH]ncc4c3Cl)s2)c1)C1CCNCC1` showed an IC50 in assay [2] of less than 1 µM.

In the case of `N#Cc1ccc(-c2cn3cccc(-c4nnc(Nc5ccc6[nH]ncc6c5Cl)s4)c3n2)cc1`, the half-inhibitory concentration (IC50) was more than 30 µM in assay [1] and less than 1 µM in assay [2]. In the case of `CCOC(=O)N(c1nnc(-c2cccc(NC(=O)Cc3ccc(F)cc3)c2)s1)c1ccc2[nH]ncc2c1Cl`, the IC50 in assay [1] was more than 30 µM. With `CC(=O)Nc1cc(C(N)=O)cc(-c2nnc(Nc3ccc4[nH]ncc4c3)s2)c1`, the IC50 in assay [1] and in assay [2] was less than 1 µM each time. Regarding `O=C(Nc1cccc(-c2nnc(Nc3ccc4[nH]ncc4c3Cl)s2)c1)C(F)(F)F`, the IC50 in assay [1] was more than 30 µM; in assay [2] it was less than 1 µM. Turning to `CC1(C(=O)Nc2cccc(-c3nnc(Nc4ccc5[nH]ncc5c4Cl)s3)c2)CCCCC1`, in assay [2], the IC50 was less than 1 µM.

Consider `CC(=O)Nc1cccc(-c2nnc(Nc3ccc4[nH]ncc4c3Br)s2)c1`, for which the IC50 in assay [1] and in assay [2] was less than 1 µM throughout.

Regarding `O=S(=O)(CCO)Nc1cccc(-c2nnc(Nc3ccc4[nH]ncc4c3)s2)c1`, the IC50 in assay [1] is more than 30 µM; in assay [2], less than 1 µM.

In the case of `Cc1cn2cccc(-c3nnc(Nc4ccc5[nH]ncc5c4Cl)s3)c2n1`, the IC50 in assay [1] and in assay [2] was less than 1 µM each time. Turning to `CN1CCC(C(=O)Nc2cccc(-c3nnc(Nc4ccc5[nH]ncc5c4Cl)s3)c2)CC1`, the IC50 in assay [1] and in assay [2] was less than 1 µM each time.

For `CC(=O)Nc1ccc(Cl)c(-c2nnc(Nc3ccc4[nH]ncc4c3Cl)s2)c1`, the IC50 in assay [1] was more than 30 µM; in assay [2], less than 1 µM.

Take `CN(C)CCn1cnc2c(-c3nnc(Nc4ccc5[nH]ncc5c4Cl)s3)cccc21`: the IC50 in assay [1] and in assay [2] was less than 1 µM in each case. On to `CC(=O)Nc1cc(C(=O)NCCN(C)C)cc(-c2nnc(Nc3ccc4[nH]ncc4c3Cl)s2)c1`, for which the IC50 in assay [1] and in assay [2] was less than 1 µM in each case.
